According to patent US20120129842A1, “BISTHIAZOLE INHIBITORS OF PRO-MATRIX METALLOPROTEINASE ACTIVATION” (priority 2010, published 2012):
Counter-ions that a name gives are not always drawn.

Assays:
[1] = target: T1, proMMP9(20-445;ΔFnII) (SEQ ID NO:6) (Homo sapiens, UniProt P14780, DEL216-390); assay: ThermoFluor binding assay with proMMP9(20-445;ΔFnII); conditions: pH 7.0
T1 construct: start methionine (N); made in house; host or cells: E. coli BL21(DE3) RIL
T1 sequence (P14780 with tags, fused parts or gaps DEL216-390): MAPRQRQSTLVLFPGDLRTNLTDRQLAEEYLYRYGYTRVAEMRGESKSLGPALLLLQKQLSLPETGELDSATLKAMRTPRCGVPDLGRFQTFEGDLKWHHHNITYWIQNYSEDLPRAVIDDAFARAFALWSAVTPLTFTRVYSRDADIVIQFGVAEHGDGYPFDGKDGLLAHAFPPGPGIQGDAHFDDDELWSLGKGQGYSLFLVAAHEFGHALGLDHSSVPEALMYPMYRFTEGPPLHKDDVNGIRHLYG
How it was run: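 proMMP9(20-445;ΔFnII) at 2.8 μM with 50 μM 1,8-ANS in 50 mM HEPES pH 7.0, 100 mM NaCl, 0.001% Tween-20, 2.5 mM MgCl2, 300 μM CaCl2; compounds serially diluted in DMSO. Heated 40–90 °C at 1 °C/min, fluorescence read at 500±25 nm. Tm fit by standard equations; binding fit using DSC/TF-derived thermodynamic parameters.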

[2] = target: proMMP13(1-268) (SEQ ID NO:7) (Homo sapiens, UniProt P45452); assay: ThermoFluor binding assay with proMMP13(1-268); design: 6xHis (C); made in house; conditions: pH 7.0
Method: The ThermoFluor® (TF) assay is a 384-well plate-based binding assay that measures thermal stability of proteins (Biomol Screen 2001, 6, 429-40; Biochemistry 2005, 44, 5258-66). The experiments were carried out using instruments available from Johnson & Johnson Pharmaceutical Research & Development, LLC. TF dye used in all experiments was […] (1,8-ANS) (Invitrogen: A-47).
Compounds were arranged in a pre-dispensed plate (Greiner Bio-one: 781280), wherein compounds were serially diluted in 100% DMSO across 11 columns within a series. Columns 12 and 24 were used as DMSO reference and contained no compound. For multiple compound concentration-response experiments, the compound aliquots ([…]) were robotically predispensed directly into black 384-well polypropylene PCR microplates (Abgene: TF-0384/k) using a Cartesian Hummingbird liquid handler (DigiLab, Holliston, Mass.). Following compound dispense, protein and dye solutions were added to achieve the final assay volume of 3 μL. The assay solutions were overlayed with 1 μL of silicone oil (Fluka, type DC 200: 85411) to prevent evaporation.
Assay plates were robotically loaded onto a thermostatically controlled PCR-type thermal block and then heated from 40 to 90° C. at a ramp-rate of 1° C./min for all experiments. Fluorescence was measured by continuous illumination with UV light (Hamamatsu LC6) supplied via fiber optics and filtered through a band-pass filter (380-400 nm; >6 OD cutoff). Fluorescence emission of the entire 384-well plate was detected by measuring light intensity using a CCD camera (Sensys, Roper Scientific) filtered to detect 500±25 nm, resulting in simultaneous and independent readings of all 384 wells. A single image with 20-sec exposure time was collected at each temperature, and the sum of the pixel intensity in a given area of the assay plate was recorded vs temperature and fit to standard equations to yield the Tm (J Biomol Screen 2001, 6, 429-40).
Thermodynamic parameters necessary for fitting compound binding for each proMMP were estimated by differential scanning calorimetry (DSC) and from ThermoFluor® data. The heat capacity of unfolding for each protein was estimated from the molecular weight and from ThermoFluor® dosing data.
The proMMP13(1-268) (SEQ ID NO:7) protein sample preparations included a desalting buffer exchange step via a PD-10 gravity column (GE Healthcare). The desalting buffer exchange was performed prior to diluting the protein to the final assay concentration of 3.5 μM. The concentration of proMMP13(1-268) (SEQ ID NO:7) was estimated spectrophotometrically based on a calculated extinction coefficient of ε280=37000 M^−1cm^−1, a calculated molecular weight of 30.8 kDa, and calculated pI of 5.33. ThermoFluor® reference conditions were defined as follows: 100 μg/mL proMMP13(1-268) (SEQ ID NO:7), 25 μM 1,8-ANS, pH 7.0 Buffer (50 mM HEPES pH 7.0, 100 mM NaCl, 0.001% Tween-20, 2.5 mM MgCl2, 300 μM CaCl2). The thermodynamic parameters for proMMP13(1-268) (SEQ ID NO:7) are as follows: Tm (° C.)=67 (+/−0.1), ΔUH(Tm) (cal mol^−1)=107000(+/−5000), ΔUS(Tm) (cal mol^−1 K^−1)=318, ΔUCp (cal mol^−1 K^−1)=2600.

[3] = target: T2, proMMP9(67-444;ΔFnII) (SEQ ID NO:5) (Homo sapiens, UniProt P14780, DEL216-390); assay: ThermoFluor binding assay with proMMP9(67-444;ΔFnII); conditions: pH 7.0
T2 construct: start methionine (N); made in house; host or cells: E. coli BL21(DE3) RIL
T2 sequence (P14780 with tags, fused parts or gaps DEL216-390): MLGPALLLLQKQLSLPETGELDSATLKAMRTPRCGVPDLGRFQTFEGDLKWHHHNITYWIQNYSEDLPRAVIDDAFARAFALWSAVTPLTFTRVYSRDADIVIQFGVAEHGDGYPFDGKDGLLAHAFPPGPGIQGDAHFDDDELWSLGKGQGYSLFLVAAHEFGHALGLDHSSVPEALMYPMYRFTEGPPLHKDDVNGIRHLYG
How it was run: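 Thermal shift binding with 3.5 μM proMMP9(67-444;ΔFnII) and 50 μM 1,8-ANS in 50 mM HEPES pH 7.0, 100 mM NaCl, 2.5 mM MgCl2, 300 μM CaCl2, 0.001% Tween-20, with serially diluted compound. Heated 40 to 90° C at 1° C/min; fluorescence-derived Tm fitted using DSC/ThermoFluor thermodynamic parameters.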

[4] = target: T3, full-length proMMP9(1-707) (SEQ ID NO:1) (Homo sapiens, UniProt P14780, R574P); assay: proMMP9/MMP3 P126 Activation Assay; assay type: biochemical; conditions: 20 nM proMMP9, 20 nM MMP3, 80 min 37° C.
T3 construct: made in house; host or cells: HEK293 (proMMP9, secreted); E. coli (MMP3)
Method: The reaction volume was 50 μL. […] Reactivity of residual MMP3 towards P-126 substrate was minimal under these conditions.

T3 sequence (P14780 20-707 R574P): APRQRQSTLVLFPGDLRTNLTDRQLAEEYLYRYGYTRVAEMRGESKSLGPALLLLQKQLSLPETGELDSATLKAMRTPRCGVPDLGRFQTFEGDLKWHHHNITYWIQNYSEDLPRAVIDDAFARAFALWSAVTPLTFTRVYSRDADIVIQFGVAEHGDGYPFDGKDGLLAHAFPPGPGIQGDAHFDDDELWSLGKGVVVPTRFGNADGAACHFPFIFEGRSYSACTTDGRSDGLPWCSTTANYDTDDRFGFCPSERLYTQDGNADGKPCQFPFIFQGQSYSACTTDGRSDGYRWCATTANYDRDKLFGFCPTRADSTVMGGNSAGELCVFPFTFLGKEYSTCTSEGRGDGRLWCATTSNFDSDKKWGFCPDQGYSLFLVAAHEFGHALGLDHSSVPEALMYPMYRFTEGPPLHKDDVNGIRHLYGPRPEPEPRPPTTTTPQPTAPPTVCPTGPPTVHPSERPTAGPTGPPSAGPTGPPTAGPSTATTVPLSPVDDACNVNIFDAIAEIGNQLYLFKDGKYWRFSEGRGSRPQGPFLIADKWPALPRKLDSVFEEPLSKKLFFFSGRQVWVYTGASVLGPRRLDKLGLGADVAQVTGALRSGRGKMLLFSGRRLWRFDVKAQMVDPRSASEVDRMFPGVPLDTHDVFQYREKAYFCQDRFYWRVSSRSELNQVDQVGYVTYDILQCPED

| Compound | Kd [1] | Kd [2] | Kd [3] | IC50 [4] |
| --- | --- | --- | --- | --- |
| CC(=O)Nc1nc(C)c(-c2csc(Nc3cc(S(C)(=O)=O)ccc3OC(C)C)n2)s1 [Example 43, N-[2-(2-Isopropoxy-5-methanesulfonyl-phenylamino)-4′-methyl-[4,5]bithiazolyl-2′-yl]-acetamide.TFA] | 590 nM | 840 nM | 580 nM | 760 nM |
| Cc1nc(N)sc1-c1csc(Nc2cc(S(C)(=O)=O)ccc2OC(C)C)n1 [Example 44, N^2-(2-Isopropoxy-5-methanesulfonyl-phenyl)-4′-methyl-[4,5′]bithiazolyl-2,2′-diamine.TFA] | 72 nM | 70 nM | 240 nM | 410 nM |
| Cc1nc(C)c(-c2csc(Nc3cc(S(C)(=O)=O)ccc3OC(C)C)n2)s1 [Example 45, (2′,4′-Dimethyl-[4,5′]bithiazolyl-2-yl)-(2-isopropoxy-5-methanesulfonyl-phenyl)-amine.TFA] | 240 nM | 200 nM | 980 nM | 830 nM |
| CCOc1ccc(C(=O)O)cc1Nc1nc(-c2sc(N)nc2C)cs1 [Example 46, 3-(2′-Amino-4′-methyl-[4,5′]bithiazolyl-2-ylamino)-4-ethoxy-benzoic acid.HBr] | 1400 nM | 5500 nM | 1200 nM | 1100 nM |
| CCOc1ccc(C(=O)O)cc1Nc1nc(-c2sc(C)nc2C)cs1 [Example 47, 3-(2′,4′-Dimethyl-[4,5′]bithiazolyl-2-ylamino)-4-ethoxy-benzoic acid.HBr] | 1800 nM | 2400 nM | 680 nM | 310 nM |
| CCOc1ccc(C(=O)O)cc1Nc1nc(-c2sc(NC(C)=O)nc2C)cs1 [Example 48, 3-(2′-Acetylamino-4′-methyl-[4,5′]bithiazolyl-2-ylamino)-4-ethoxy-benzoic acid.HBr] | 23000 nM | 63000 nM | 3700 nM | 1400 nM |
| CCS(=O)(=O)c1ccc(OC)c(Nc2nc(-c3sc(NC(C)=O)nc3C)cs2)c1 [Example 49, N-[2-(5-Ethanesulfonyl-2-methoxy-phenylamino)-4′-methyl-[4,5]bithiazolyl-2′-yl]-acetamide.TFA] | 4100 nM | 6100 nM | 2500 nM | 3000 nM |
| CCS(=O)(=O)c1ccc(OC)c(Nc2nc(-c3sc(C)nc3C)cs2)c1 [Example 50, (2′,4′-Dimethyl-[4,5′]bithiazolyl-2-yl)-(5-ethanesulfonyl-2-methoxy-phenyl)-amine.TFA] | 1300 nM | 2600 nM | 2600 nM | 4100 nM |
| CCS(=O)(=O)c1ccc(OC)c(Nc2nc(-c3sc(N)nc3C)cs2)c1 [Example 51, N^2-(5-Ethanesulfonyl-2-methoxy-phenyl)-4′-methyl-[4,5′]bithiazolyl-2,2′-diamine.TFA] | 1100 nM | 1900 nM | 3000 nM | 4100 nM |
| COc1ccc(S(N)(=O)=O)cc1Nc1nc(-c2sc(C)nc2C)cs1 [Example 54, 3-(2′,4′-Dimethyl-[4,5′]bithiazolyl-2-ylamino)-4-methoxy-benzenesulfonamide.TFA] | 1000 nM | 2000 nM | 1600 nM | 3400 nM |
| COc1ccc(C(=O)O)cc1Nc1nc(-c2sc(N)nc2C)cs1 [Example 55, 3-(2′-Amino-4′-methyl-[4,5′]bithiazolyl-2-ylamino)-4-methoxy-benzoic acid.HBr] | 2500 nM | 9800 nM | 1700 nM | 740 nM |
| COc1ccc(C(=O)O)cc1Nc1nc(-c2sc(NC(C)=O)nc2C)cs1 [Example 57, 3-(2′-Acetylamino-4′-methyl-[4,5′]bithiazolyl-2-ylamino)-4-methoxy-benzoic acid.HBr] | 11000 nM | > 95000 nM | 1700 nM | 1900 nM |
| COc1ccc(C(=O)NCc2ccccc2)cc1Nc1nc(-c2sc(NC(C)=O)nc2C)cs1 [Example 59, 3-(2′-Acetylamino-4′-methyl-[4,5′]bithiazolyl-2-ylamino)-N-benzyl-4-methoxy-benzamide.TFA] | 2000 nM | 20000 nM | 2700 nM | 7500 nM |
